The values below come from patent publication US20240376097A1, “BCL-2 Inhibitor” (BeiGene Ltd., priority 2020, published 2024).

Molecules are shown by their SMILES. Where two headings read alike, the source gives them in different places.

Format in all cases: binding
Assay [1] addresses recombinant human Bcl-2 D103Y protein (Homo sapiens (Human), UniProt P10415, D103Y). The assay can be described thus: Bcl-2-D103Y Biochemical Assay (TR-FRET). The following applies: for IC50: TR-FRET, FITC labeled Bak peptide; for Ratio of Bcl-2 D103Y/Bcl-2 WT: ratio of IC50. Here is the method:
Biological Example: Bcl-2-D103Y Biochemical Assay
[…]. The TR-FRET signals (ex337 nm, em490 nm/520 nm) were read on BMG PHERAstar FSX instrument. The inhibition percentage of Bcl-2 D103Y interaction with its ligand in presence of increasing concentrations of compounds was calculated based on the ratio of fluorescence at 490 nm to that at 520 nm. The IC50 for each compound was derived from fitting the data to the four-parameter logistic equation by Dotmatics.
A general note: In TR-FRET formats the signal depends on donor and acceptor labels being close together.

Assay [2] addresses recombinant human Bcl-2-G101V protein (Homo sapiens (Human), UniProt P10415, G101V). The assay can be described thus: Bcl-2-G101V TR-FRET Assay. Particulars: Bcl-2 G101V mutant, TR-FRET; read-out: Biochemical assay (IC50, nM) Bcl-2 G101V. As to the method: (§1) Biological Example: Bcl-2-G101V TR-FRET Assay
(§2) […]. The TR-FRET signals (ex337 nm, em490 nm/520 nm) were read on BMG PHERAstar FSX instrument. The inhibition percentage of Bcl-2-G101V interaction with its ligand in presence of increasing concentrations of compounds was calculated based on the ratio of fluorescence at 490 nm to that at 520 nm. The IC50 for each compound was derived from fitting the data to the four-parameter logistic equation by Graphpad Prism software or Dotmatics.

Assay [3] relates to recombinant human Bcl-2-G101V protein. As to the kind of experiment: Bcl-2-G101V TR-FRET Assay. The following applies: ratio of biochemical IC50 Bcl-2 G101V / Bcl-2 WT. As to the method: as §1, §2
In assay [4] the target is Recombinant human Bcl-2 protein (Homo sapiens (Human), UniProt P10415). As to the kind of experiment: Bcl-2 TR-FRET Assay. Here is the method: Biological Example: Bcl-2 TR-FRET Assay
Compounds disclosed herein were tested for blocking of Bcl-2 protein with its ligand in an assay based on Time-Resolved Fluorescence Resonance Energy Transfer (TR-FRET) methodology. Recombinant human 0.05 nM Bcl-2 protein was pre-incubated with a serial dilution of compounds disclosed herein (top final concentration is 1 uM or 0.1 uM or 0.02 uM or 0.01 uM, 10 points) at room temperature for 0.5 hour in an assay buffer containing 20 mM potassium phosphate buffer, pH 7.5, 50 mM NaCl. 1 mM EDTA, 0.05% Tween-20, 0.01% BSA. Then the FITC labeled Bak peptide Ac-GQVGRQLAIIGDK(FITC)INR-amide (0.5 nM) and MAb Anti 6His Tb cryptate Gold were added to plate and further incubated at room temperature for 1 hour. The TR-FRET signals (337 nm-520 nm-490 nm) were read on BMG PHERAstar FSX instrument. The inhibition percentage of Bcl-2 interaction with its ligand in presence of increasing concentrations of compounds was calculated based on the TR-FRET signals. The IC50 for each compound was derived from fitting the data to the four-parameter logistic equation by Graphpad Prism software or Dotmatics.

Where [5] appears, read: Bcl-2 wild type, TR-FRET, read-out: Biochemical assay (IC50, nM) Bcl-2 WT.
Where [6] appears, read: wild type Bcl-2, unit inferred, read-out: Bcl-2 WT.

On to `CC(C)c1ccccc1C1CN(Cc2ccc(OC(F)(F)F)cc2)CCN1C1CC2(CCN(c3ccc(C(=O)NS(=O)(=O)c4ccc(NC[C@H]5CC[C@](C)(O)CC5)c([N+](=O)[O-])c4)c(Oc4cnc5[nH]ccc5c4)c3)CC2)C1` (some centres unmarked) [Example 39, 2-((1H-pyrrolo[2,3-b]pyridin-5-yl)oxy)-N-((4-((((1r,4r)-4-hydroxy-4-methylcyclohexyl)methyl)amino)-3-nitrophenyl)sulfonyl)-4-(2-(2-(2-isopropylphenyl)-4-(4-(trifluoromethoxy)benzyl)piperazin-1-yl)-7-azaspiro[3.5]nonan-7-yl)benzamide], for which the IC50 in assay [1] was 3.8 nM; in assay [2], 6.7 nM; in assay [4] (setting [5]) it was 1.1 nM; in assay [4] (setting [6]) it was 1.1 nM. Moreover, the “Ratio of Bcl-2 D103Y/Bcl-2 WT” value in assay [1] was 3.5. Moreover, in assay [3], the “Ratio of Bcl-2 G101V/WT” value is given as 6.1.
As for `CC(C)c1ccccc1[C@@H]1CN(Cc2ccc(C3CCOC3)cc2)CCN1C1CC2(C1)CN(c1ccc(C(=O)NS(=O)(=O)c3ccc(NCC4CCC(C)(O)CC4)c([N+](=O)[O-])c3)c(Oc3cnc4[nH]cc(F)c4c3)c1)C2` (stereo partly drawn) [Example 371, 2-((3-fluoro-1H-pyrrolo[2,3-b]pyridin-5-yl)oxy)-N-((4-((((1r,4r)-4-hydroxy-4-methylcyclohexyl)methyl)amino)-3-nitrophenyl)sulfonyl)-4-(6-((2R)-2-(2-isopropylphenyl)-4-(4-(tetrahydrofuran-3-yl)benzyl)piperazin-1-yl)-2-azaspiro[3.3]heptan-2-yl)benzamide], the results for the IC50 in assay [1], in assay [2] and in assay [4] (setting [5]) were 0.31 nM, 0.32 nM and 0.12 nM, respectively. Also, the “Ratio of Bcl-2 D103Y/Bcl-2 WT” value in assay [1] was 2.6. In addition, in assay [3], the “Ratio of Bcl-2 G101V/WT” value worked out at 2.7.
Consider `COc1ccc(CN2CCN(C3CC4(CCN(c5ccc(C(=O)NS(=O)(=O)c6ccc(NCC7(F)CCC(C)(O)CC7)c([N+](=O)[O-])c6)c(Oc6cnc7[nH]ccc7c6)c5)CC4)C3)[C@H](c3ccccc3C(C)C)C2)cc1` (stereo partly drawn) [Example 226, (R)-2-((1H-pyrrolo[2,3-b]pyridin-5-yl)oxy)-N-((4-(((1-fluoro-4-hydroxy-4-methylcyclohexyl)methyl)amino)-3-nitrophenyl)sulfonyl)-4-(2-(2-(2-isopropylphenyl)-4-(4-methoxybenzyl)piperazin-1-yl)-7-azaspiro[3.5]nonan-7-yl) benzamide], for which the IC50 was found to be 0.16 nM in assay [1], 0.64 nM in assay [2], 0.17 nM in assay [4] (setting [5]) and 0.17 nM in assay [4] (setting [6]). For the same molecule, in assay [1], the “Ratio of Bcl-2 D103Y/Bcl-2 WT” value was 1. Further, the “Ratio of Bcl-2 G101V/WT” value in assay [3] was determined as 3.9.
As for `CNc1ccc(CN2CCN(C3CC4(C3)CN(c3ccc(C(=O)NS(=O)(=O)c5ccc(NC[C@H]6CC[C@](C)(O)CC6)c([N+](=O)[O-])c5)c(Oc5cnc6[nH]cc(F)c6c5)c3)C4)[C@H](c3ccccc3C(C)C)C2)cc1OC` [Example 358, 2-((3-fluoro-1H-pyrrolo[2,3-b]pyridin-5-yl)oxy)-N-((4-((((1r,4r)-4-hydroxy-4-methylcyclohexyl)methyl)amino)-3-nitrophenyl)sulfonyl)-4-(6-((R)-2-(2-isopropylphenyl)-4-(3-methoxy-4-(methylamino)benzyl)piperazin-1-yl)-2-azaspiro[3.3]heptan-2-yl) benzamide], the IC50 turned out to be 0.11 nM in assay [1], 0.24 nM in assay [2], 0.1 nM in assay [4] (setting [5]) and 0.1 nM in assay [4] (setting [6]). Further, the “Ratio of Bcl-2 D103Y/Bcl-2 WT” value in assay [1] worked out at 1.1. Moreover, the “Ratio of Bcl-2 G101V/WT” value in assay [3] is given as 2.4.
For `COc1cc(CN2CCN(C3CC4(CCN(c5ccc(C(=O)NS(=O)(=O)c6ccc(NC[C@H]7CC[C@](C)(O)CC7)c([N+](=O)[O-])c6)c(Oc6cnc7[nH]ccc7c6)c5)CC4)C3)[C@H](c3ccccc3C(C)C)C2)cc2c1OCC2(C)C` [Example 286, 2-((1H-pyrrolo[2,3-b]pyridin-5-yl)oxy)-N-((4-((((1r,4r)-4-hydroxy-4-methylcyclohexyl)methyl)amino)-3-nitrophenyl)sulfonyl)-4-(2-((R)-2-(2-isopropylphenyl)-4-((7-methoxy-3,3-dimethyl-2,3-dihydrobenzofuran-5-yl)methyl)piperazin-1-yl)-7-azaspiro[3.5]nonan-7-yl)benzamide], the IC50 was determined as 0.19 nM in assay [1], 0.48 nM in assay [2], 0.1 nM in assay [4] (setting [5]) and 0.1 nM in assay [4] (setting [6]). Further, the “Ratio of Bcl-2 D103Y/Bcl-2 WT” value in assay [1] is 1.9. The “Ratio of Bcl-2 G101V/WT” value in assay [3] was 4.8.
In the case of `CC(C)c1ccccc1C1CN(Cc2ccc(Cl)c(Cl)c2)CCN1C1CC2(CCN(c3ccc(C(=O)NS(=O)(=O)c4ccc(NC[C@H]5CC[C@](C)(O)CC5)c([N+](=O)[O-])c4)c(Oc4cnc5[nH]ccc5c4)c3)CC2)C1` (some centres unmarked) [Example 117, 2-((1H-pyrrolo[2,3-b]pyridin-5-yl)oxy)-4-(2-(4-(3,4-dichlorobenzyl)-2-(2-isopropylphenyl)piperazin-1-yl)-7-azaspiro[3.5]nonan-7-yl)-N-((4-((((1r,4r)-4-hydroxy-4-methylcyclohexyl)methyl)amino)-3-nitrophenyl)sulfonyl)benzamide], the IC50 turned out to be 7.1 nM in assay [2] and 1.6 nM in assay [4] (setting [5]). Besides, in assay [3], the “Ratio of Bcl-2 G101V/WT” value amounted to 4.4.
In the same order, the values of `COc1ccc(CN2CCN(C3CC4(CCN(c5ccc(C(=O)NS(=O)(=O)c6ccc(NC[C@H]7CC[C@](C)(O)CC7)c([N+](=O)[O-])c6)c(Oc6cnc7[nH]ccc7c6)c5)CC4)C3)C(c3cc(Cl)ccc3C(C)C)C2)cc1` (some centres unmarked) [Example 247, 2-((1H-pyrrolo[2,3-b]pyridin-5-yl)oxy)-4-(2-(2-(5-chloro-2-isopropylphenyl)-4-(4-methoxybenzyl)piperazin-1-yl)-7-azaspiro[3.5]nonan-7-yl)-N-((4-((((1r,4r)-4-hydroxy-4-methylcyclohexyl)methyl)amino)-3-nitrophenyl)sulfonyl)benzamide] are 3.3 nM, 0.8 nM and 4.2.
Regarding `COc1ccc(CN2CCN(C3CC4(CCN(c5ccc(C(=O)NS(=O)(=O)c6ccc(NC[C@H]7CC[C@](C)(O)CC7)c([N+](=O)[O-])c6)c(Oc6cnc7[nH]ccc7c6)c5)CC4)C3)C(c3ccccc3CC(C)C)C2)cc1` (some centres unmarked) [Example 35, 2-((1H-pyrrolo[2,3-b]pyridin-5-yl)oxy)-N-((4-((((1r,4r)-4-hydroxy-4-methylcyclohexyl)methyl)amino)-3-nitrophenyl)sulfonyl)-4-(2-(2-(2-isobutylphenyl)-4-(4-methoxybenzyl)piperazin-1-yl)-7-azaspiro[3.5]nonan-7-yl) benzamide], the IC50 was determined as 163 nM in assay [2] and 2.2 nM in assay [4] (setting [5]). Moreover, the “Ratio of Bcl-2 G101V/WT” value in assay [3] turned out to be 74.1.
